One assay concerns the target T1, human TGR5 receptor (Homo sapiens, UniProt Q8TDU6).
T1 construct: host or cells: CHO-K1 (hTGR5-CHO)
T1 sequence (Q8TDU6 1-330): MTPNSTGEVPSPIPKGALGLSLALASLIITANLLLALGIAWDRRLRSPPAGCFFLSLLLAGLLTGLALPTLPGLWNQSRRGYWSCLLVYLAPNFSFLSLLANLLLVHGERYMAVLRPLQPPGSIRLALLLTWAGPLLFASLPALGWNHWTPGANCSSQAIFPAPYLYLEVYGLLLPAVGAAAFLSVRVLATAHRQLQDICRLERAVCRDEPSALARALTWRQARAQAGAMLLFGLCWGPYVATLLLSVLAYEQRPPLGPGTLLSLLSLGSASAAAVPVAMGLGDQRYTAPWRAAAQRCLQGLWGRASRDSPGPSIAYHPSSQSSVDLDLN
The assay is described as follows: Human TGR5 cAMP production assay (hTGR5-CHO cells, DiscoveRx cAMP XS+ kit). The assay is classed as cell-based. To be noted: luminescent cAMP assay, read-out: Human TGR5 Lum. cAMP Activity (EC50). The method, boiled down:
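EC50 values come from luminescent enzyme-complementation cAMP detection, read after overnight incubation. Beforehand, hTGR5-expressing CHO-K1 cells with IBMX and anti-cAMP antibody were exposed 1 h at room temperature to serially diluted (half-log) compounds.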

The target of another assay is T2, mouse TGR5 receptor (Mus musculus, UniProt Q80SS6).
T2 construct: host or cells: HEK293-EBNA (293 c18, ATCC CRL10852)
T2 sequence (Q80SS6 1-329): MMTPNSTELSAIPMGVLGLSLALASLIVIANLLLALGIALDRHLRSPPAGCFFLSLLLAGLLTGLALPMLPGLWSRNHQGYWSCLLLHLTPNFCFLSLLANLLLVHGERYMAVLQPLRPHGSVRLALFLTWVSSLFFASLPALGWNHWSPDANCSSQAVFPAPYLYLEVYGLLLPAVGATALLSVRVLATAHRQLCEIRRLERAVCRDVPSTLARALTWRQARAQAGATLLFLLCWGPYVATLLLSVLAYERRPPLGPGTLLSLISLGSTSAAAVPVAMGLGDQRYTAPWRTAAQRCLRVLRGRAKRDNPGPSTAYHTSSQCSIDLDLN
The assay is described as follows: Mouse TGR5 luminescent cAMP production assay (HEK293-EBNA cells, DiscoveRx cAMP XS+ kit). The class given is cell-based. The settings on record: HEK293-EBNA cells overexpressing mouse TGR5, luminescent cAMP assay; read-out: Mouse TGR5 Lum. cAMP Activity (EC50). The method, boiled down:
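HEK293-EBNA cells stably expressing mouse TGR5, resuspended in serum-free DMEM with 500 μM IBMX, were premixed 20 min with cAMP antibody, then exposed to half-log compound dilutions for 1 h at room temperature. cAMP was read by luminescent enzyme-fragment complementation (cAMP XS+) after overnight incubation; EC50 derived.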
For orientation: Changes in cAMP serve as a functional read-out for many G protein-coupled receptors.

Where a name gives a salt, the structure may show the parent alone. Bounds are passed on as bounds.

The term EC50 denotes the concentration at which the effect is half-maximal.

Regarding `N#Cc1ccc(CCNC(=O)[C@@H]2C[C@@H](O)CN2c2cc(N3CCC(CO)CC3)nc(C(F)(F)F)n2)cc1` [Compound 211, (2S,4R)-N-(4-cyanophenethyl)-4-hydroxy-1-(6-(4-(hydroxymethyl)piperidin-1-yl)-2-(trifluoromethyl)pyrimidin-4-yl)pyrrolidine-2-carboxamide], the EC50 at human TGR5 receptor and on mouse TGR5 receptor was 100 to 999 nM throughout.
For the compound `N[C@@H]1CC(C(=O)NCCc2ccc(C(F)(F)F)cc2)N(c2cc(N3CCC(CO)CC3)nc(C(F)(F)F)n2)C1` (stereo partly drawn) [Compound 218, (4R)-4-amino-1-(6-(4-(hydroxymethyl)piperidin-1-yl)-2-(trifluoromethyl)pyrimidin-4-yl)-N-(4-(trifluoromethyl)phenethyl)pyrrolidine-2-carboxamide], the EC50 is 1000 to 30000 nM at human TGR5 receptor and 100 to 999 nM on mouse TGR5 receptor.
For `CN(C)CC1CCN(c2cc(N3CC[C@H]3C(=O)NCCc3ccc(C#N)cc3)nc(C(F)(F)F)n2)CC1` [Compound 221, (S)-N-(4-cyanophenethyl)-1-(6-(4-((dimethylamino)methyl)piperidin-1-yl)-2-(trifluoromethyl)pyrimidin-4-yl)azetidine-2-carboxamide] the same measures were 100 to 999 nM and below 100 nM.
For `COCC1CCN(c2cc(N3CC[C@H]3C(=O)NCCc3ccc(C#N)cc3)nc(C(F)(F)F)n2)CC1` [Compound 222, (S)-N-(4-cyanophenethyl)-1-(6-(4-(methoxymethyl)piperidin-1-yl)-2-(trifluoromethyl)pyrimidin-4-yl)azetidine-2-carboxamide] the same measures were below 100 nM and 100 to 999 nM.
The corresponding values for `N#Cc1ccc(CCNC(=O)C2CCN2c2cc(N3CCC(CO)CC3)nc(C(F)(F)F)n2)cc1` (centres unmarked) [Compound 241, N-(4-cyanophenethyl)-1-(6-(4-(hydroxymethyl)piperidin-1-yl)-2-(trifluoromethyl)pyrimidin-4-yl)azetidine-2-carboxamide] are below 100 nM and below 100 nM.
In the case of `N#Cc1ccc(CCNC(=O)[C@@H]2CCN2c2cc(OC3CCOCC3)nc(C(F)(F)F)n2)cc1` [Compound 242, (S)—N-(4-cyanophenethyl)-1-(6-((tetrahydro-2H-pyran-4-yl)oxy)-2-(trifluoromethyl)pyrimidin-4-yl)azetidine-2-carboxamide], the EC50 was 100 to 999 nM on human TGR5 receptor and below 100 nM at mouse TGR5 receptor.
The corresponding values for `CC(C)(C)OC(=O)N1CCC(Oc2cc(N3CC[C@H]3C(=O)NCCc3ccc(C#N)cc3)nc(C(F)(F)F)n2)CC1` [Compound 243, (S)-tert-butyl 4-((6-(2-((4-cyanophenethyl)carbamoyl)azetidin-1-yl)-2-(trifluoromethyl)pyrimidin-4-yl)oxy)piperidine-1-carboxylate] are 100 to 999 nM and 100 to 999 nM.
The corresponding values for `N#Cc1ccc(CCNC(=O)C2CCN2c2cc(OC3CCOCC3)nc(C(F)(F)F)n2)cc1` (centres unmarked) [Compound 244, N-(4-cyanophenethyl)-1-(6-((tetra-hydro-2H-pyran-4-yl)oxy)-2-(trifluoromethyl)pyrimidin-4-yl)azetidine-2-carboxamide] are 100 to 999 nM and below 100 nM.
As to `N#Cc1ccc(CCNC(=O)[C@@H]2CCN2c2cc(N3CCC(CN)CC3)nc(C(F)(F)F)n2)cc1` [Compound 245, (S)-(1-(6-(4-aminomethylpiperidin-1-yl)-2-(trifluoromethyl)pyrimidin-4-yl)-N-(4-cyanophenethyl)azetidine-2-carboxamide hydrochloride], the EC50 on human TGR5 receptor and at mouse TGR5 receptor was 100 to 999 nM each time.
Turning to `N#Cc1ccc(CCNC(=O)[C@@H]2CCN2c2cc(-c3ccncc3)nc(C(F)(F)F)n2)cc1` [Compound 303], the EC50 on human TGR5 receptor and on mouse TGR5 receptor was 100 to 999 nM each time.
`N#Cc1ccc(CCNC(=O)[C@@H]2CCN2c2cc(-c3ccc(CO)cc3)nc(C(F)(F)F)n2)cc1` [Compound 304, (S)-N-(4-cyanophenethyl)-1-(6-(4-(hydroxymethyl)phenyl)-2-(trifluoromethyl)pyrimidin-4-yl)azetidine-2-carboxamide]: the EC50 at human TGR5 receptor and at mouse TGR5 receptor was 100 to 999 nM throughout.
In the case of `N#Cc1ccc(CCNC(=O)[C@@H]2CCN2c2cc(-c3cccnc3)nc(C(F)(F)F)n2)cc1` [Compound 305, (S)-N-(4-cyanophenethyl)-1-(6-(pyridin-3-yl)-2-(trifluoromethyl)pyrimidin-4-yl)azetidine-2-carboxamide], the EC50 at human TGR5 receptor is 1000 to 30000 nM; at mouse TGR5 receptor it was 100 to 999 nM.
Turning to `N#Cc1ccc(CCNC(=O)[C@@H]2CCN2c2cc(-c3ccccn3)nc(C(F)(F)F)n2)cc1` [Compound 306, (S)-N-(4-cyanophenethyl)-1-(6-(pyridin-2-yl)-2-(trifluoromethyl)pyrimidin-4-yl)azetidine-2-carboxamide], the EC50 on human TGR5 receptor and at mouse TGR5 receptor was 100 to 999 nM in each case.
As for `N#Cc1ccc(CCNC(=O)C2CCN2c2cc(-c3ccncc3)nc(C(F)(F)F)n2)cc1` (centres unmarked) [Compound 307, N-(4-cyanophenethyl)-1-(6-(pyridin-4-yl)-2-(trifluoromethyl)pyrimidin-4-yl)azetidine-2-carboxamide], the EC50 is 100 to 999 nM at human TGR5 receptor and below 100 nM at mouse TGR5 receptor.
In the case of `COCC1CCN(c2cc(N3CCC[C@@H](C(=O)NCCc4ccc(C#N)cc4)C3)nc(C(F)(F)F)n2)CC1` [Compound 310, (R)-N-(4-cyanophenethyl)-1-(6-(4-(methoxymethyl)piperidin-1-y1)-2-(trifluoromethyl)pyrimidin-4-yl)piperidine-3-carboxamide], the results for the EC50 on human TGR5 receptor and at mouse TGR5 receptor were below 100 nM and 100 to 999 nM, respectively.
For `N#Cc1ccc(CCNC(=O)[C@@H]2CCCN(c3cc(N4CCN(CCO)CC4)nc(C(F)(F)F)n3)C2)cc1` [Compound 313, (R)-N-(4-cyanophenethyl)-1-(6-(4-(2-hydroxyethyl)piperazin-1-yl)-2-(trifluoromethyl)pyrimidin-4-yl)piperidine-3-carboxamide] the same measures were 100 to 999 nM and 100 to 999 nM.
The corresponding values for `CN(C)CCN1CCN(c2cc(N3CCC[C@@H](C(=O)NCCc4ccc(C#N)cc4)C3)nc(C(F)(F)F)n2)CC1` [Compound 317, (R)-N-(4-cyanophenethyl)-1-(6-(4-(2-(dimethylamino)ethyl)piperazin-1-yl)-2-(trifluoromethyl)pyrimidin-4-yl)piperidine-3-carboxamide] are 100 to 999 nM and 100 to 999 nM.
The corresponding values for `N#Cc1ccc(CCNC(=O)[C@@H]2CCCN(c3cc(N4CCN(Cc5cccc6c5OCO6)CC4)nc(C(F)(F)F)n3)C2)cc1` [Compound 319, (R)-1-(6-(4-(benzo[d][1,3]dioxol-4-ylmethyl)piperazin-1-yl)-2-(trifluoromethyl)pyrimidin-4-yl)-N-(4-cyanophenethyl)piperidine-3-carboxamide] are 100 to 999 nM and 100 to 999 nM.
For `Nc1cc(N2CCC[C@@H](C(=O)NCCc3ccc(C(F)(F)F)cc3)C2)nc(C(F)(F)F)n1` [Compound 320, (R)-1-(6-amino-2-(trifluoromethyl)pyrimidin-4-yl)-N-(4-(trifluoromethyl)phenethyl)piperidine-3-carboxamide], the EC50 at human TGR5 receptor and on mouse TGR5 receptor was 100 to 999 nM each time.
On to `CNc1cc(N2CCC[C@@H](C(=O)NCCc3ccc(C(F)(F)F)cc3)C2)nc(C(F)(F)F)n1` [Compound 321, (R)-1-(6-(methylamino)-2-(trifluoromethyl)pyrimidin-4-yl)-N-(4-(trifluoromethyl)phenethyl)piperidine-3-carboxamide], for which the half-maximal effective concentration (EC50) at human TGR5 receptor and on mouse TGR5 receptor was 100 to 999 nM throughout.
Turning to `CN(C)c1cc(N2CCC[C@@H](C(=O)NCCc3ccc(C(F)(F)F)cc3)C2)nc(C(F)(F)F)n1` [Compound 322, (R)-1-(6-(dimethylamino)-2-(trifluoromethyl)pyrimidin-4-yl)-N-(4-(trifluoromethyl)phenethyl)piperidine-3-carboxamide], the EC50 at human TGR5 receptor was in the range of 100 to 999 nM; on mouse TGR5 receptor, 1000 to 30000 nM.
The corresponding values for `O=C(NCCc1ccc(C(F)(F)F)cc1)[C@@H]1CCCN(c2cc(NCCO)nc(C(F)(F)F)n2)C1` [Compound 323, (R)-1-(6-((2-hydroxyethyl)amino)-2-(trifluoromethyl)pyrimidin-4-yl)-N-(4-(trifluoromethyl)phenethyl)piperidine-3-carboxamide] are 100 to 999 nM and 100 to 999 nM.

(Values after patent publication US10654834B2 (Venenum Biodesign, LLC, priority 2016, dated 2020).)
